From patent US12447198B2, “Peptides and fragments for treating diabetes and associated metabolic diseases” (Betavive Ltd., priority 2021, dated 2025) come the findings set out here.

The test system of one assay is mice. Put plainly: Blood glucose concentration kinetics of IGF-2 vs. insulin in a glucose tolerance test. It is filed as in vivo, mouse. To be noted: insulin 1 unit per kg, IGF-2 800 μg/kg. The text has this: IGF-2 therefore provides an effect that mimics insulin within the body, and that effect is referred to herein as an “insulinomimetic” effect. […] In this example, administering IGF-2 can provide better results than administering insulin with respect to blood glucose levels, even when only a single dose was used. Without being bound by this theory, it is possible that the IGF-2 combines with a number of binding proteins in the blood and its active free form is then released slowly from the complex.

In assay [1] the test system is STZ-treated mouse islets. The assay can be described thus: MTT viability of STZ-treated mouse islets. Particulars: increasing concentrations. It is filed as cell-based. The text has this: Yellow dye MTT is converted to a purple dye by mitochondrial reductase in viable cells. Therefore, the amount of purple dye present determined by measuring optical density of cells at 570 nm serves as a measurement of cell viability.

The next assay relates to β-MIN6 cells. Put plainly: Insulin secretion of β-MIN6 cells following glucose induction. It is filed as cell-based, mouse. To be noted: 1 week treatment; IGF-2 5 nM, 20 nM, 80 nM. An excerpt:
β-MIN6 cells serve as an in vitro model of mouse pancreatic islets. β-MIN6 cells were used as an in vitro model to measure the effects of treatment with IGF-2.

Assay [2] relates to STZ-treated mouse islets. Put plainly: Insulin secretion from STZ-treated mouse islets. It is filed as cell-based. Particulars: islets treated with 2.5 mM STZ; 48 hours after treatment; IGF-2 50 nM and 500 nM, GLP-1 100 nM and 1000 nM. As for the experimental part:
Mouse islet cells were treated with 2.5 mM STZ and subsequently treated with either IGF-2 (FA) at 50 nM and 500 nM, or with GLP-1 at 100 nM and 1000 nM.

Where no end group is shown, it is not given here.

For the substance insulin [reference compound], the “glucose level after administration” value with mice (glucose tolerance test in mice) was “the glucose level decreased”. Besides, in the assay with mice (single dose), the “time after which the recovery in glucose levels began” value is listed as “after two hours”.
Turning to “GLP-1 (HAEGTFTSDVSSYLEGQAAKEFIAWLVKGR; ends and bridges not checked; UniProt P01275 98-127, looked up) [a satiety hormone, comparator in vitro, reference compound]”, the “mouse islet viability (MTT, optical density at 570 nm)” value in the assay on STZ-treated mouse islets [1] is recorded as “did not significantly increase mouse islet viability”. Besides, the “insulin secretion following glucose induction” value in the assay with β-MIN6 cells is listed as “does not increase insulin secretion”. Besides, the insulin secretion result in the assay on STZ-treated mouse islets [2] is “did not significantly increase insulin secretion”.
